Paper PMC4498294, “Tetrahydroisoquinolines affect the whole-cell phenotype of Mycobacterium tuberculosis by inhibiting the ATP-dependent MurE ligase” (Journal of Antimicrobial Chemotherapy, 2015)
Converted amounts (≈) assume the structure as drawn. Like-named read-outs stand apart in the source and are kept apart here.

Columns and labels:
P-glycoprotein = P-glycoprotein (Homo sapiens, UniProt P08183); assay: in vitro; conditions: dog, MDCK-MDR1
Method: All dose solutions contained 10 μM propranolol as an internal standard. MDCK cells carrying the MDR-1 gene were used to seed filters that were exposed to a fixed volume of the donor solution containing the compound of interest. The compound's ability to traverse the monolayer and appear in the receiver compartment was measured over a 30 min period. Bidirectional permeability measurements were derived by examining the transfer of compound from both the apical to the basolateral compartment and vice versa. Sample analysis was conducted using LC-MS/MS with the detection settings optimized for each test compound.

[1] = Human microsome stability assay; type: in vitro ADME; parameters: half-life: dose or concentration left out as unconfirmed; conditions: for half-life: human, liver microsomes, read-out: t1/2 microsomes
Method: (§1) Microsomes and NADPH were then added to the solution and the reaction was incubated at 37°C for up to 60 min. Acetonitrile (300 μL) with internal standard was added to stop the incubation. The samples were centrifuged and the supernatant was then analysed by HPLC-MS/MS to detect the parent compound.

[2] = MDCK cell permeability assay; type: in vitro ADME, canine; conditions: dog, MDCK-MDR1; MDCK MDR-1 monolayer, class
MDR-1 = assay: MDCK cell permeability assay; type: in vitro ADME, canine; conditions: dog, MDCK-MDR1, MDCK MDR-1 monolayer, 10 μM, 30 min; for Papp A→B at 30 min, 10 μM: apical to basolateral; for Papp B→A at 30 min, 10 μM: basolateral to apical
[3] = system: MDCK cells carrying the MDR-1 gene; assay: MDCK cell permeability assay; type: in vitro ADME, canine; conditions: MDCK MDR-1 monolayer, 10 μM, 30 min, apical to basolateral
[4] = molecular target: MurE (Rv2158c) protein of M. tuberculosis H37Rv (Mycobacterium tuberculosis, UniProt P9WJL3); assay: Mtb-MurE HPLC inhibition assay; type: biochemical; conditions: HPLC assay, 37°C 30 min
Sequence of MurE (Rv2158c) protein of M. tuberculosis H37Rv (P9WJL3 whole entry, looked up): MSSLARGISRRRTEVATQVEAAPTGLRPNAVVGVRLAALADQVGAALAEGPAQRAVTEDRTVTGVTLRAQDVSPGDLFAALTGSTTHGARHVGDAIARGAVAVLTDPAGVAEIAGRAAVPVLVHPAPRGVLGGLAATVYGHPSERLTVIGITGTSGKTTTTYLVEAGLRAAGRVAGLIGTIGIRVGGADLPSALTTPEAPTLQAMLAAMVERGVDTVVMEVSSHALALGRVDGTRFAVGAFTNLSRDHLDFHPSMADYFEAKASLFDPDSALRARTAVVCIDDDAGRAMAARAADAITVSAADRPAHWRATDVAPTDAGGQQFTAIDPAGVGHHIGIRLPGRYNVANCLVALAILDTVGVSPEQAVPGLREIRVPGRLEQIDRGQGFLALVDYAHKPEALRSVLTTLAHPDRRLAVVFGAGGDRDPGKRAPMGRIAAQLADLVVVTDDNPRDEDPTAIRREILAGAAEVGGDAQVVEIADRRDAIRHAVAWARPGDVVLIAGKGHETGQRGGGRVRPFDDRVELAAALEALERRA

CYP 2C19 = molecular target: T1, CYP 2C19 (Homo sapiens, UniProt P33261); assay: CYP450 inhibition assay, CYP 2C19; type: in vitro ADME; parameters: dose or concentration left out as unconfirmed; conditions: CYP baculosomes with recombinant human CYP2C19, probe fluorogenic substrate (not named); human recombinant enzymes; read-out: Mean % inhibtion CYP 2C19
T1 construct: purchased; host or cells: baculosomes (insect-cell microsomes; own knowledge)
T1 sequence (P33261 whole entry): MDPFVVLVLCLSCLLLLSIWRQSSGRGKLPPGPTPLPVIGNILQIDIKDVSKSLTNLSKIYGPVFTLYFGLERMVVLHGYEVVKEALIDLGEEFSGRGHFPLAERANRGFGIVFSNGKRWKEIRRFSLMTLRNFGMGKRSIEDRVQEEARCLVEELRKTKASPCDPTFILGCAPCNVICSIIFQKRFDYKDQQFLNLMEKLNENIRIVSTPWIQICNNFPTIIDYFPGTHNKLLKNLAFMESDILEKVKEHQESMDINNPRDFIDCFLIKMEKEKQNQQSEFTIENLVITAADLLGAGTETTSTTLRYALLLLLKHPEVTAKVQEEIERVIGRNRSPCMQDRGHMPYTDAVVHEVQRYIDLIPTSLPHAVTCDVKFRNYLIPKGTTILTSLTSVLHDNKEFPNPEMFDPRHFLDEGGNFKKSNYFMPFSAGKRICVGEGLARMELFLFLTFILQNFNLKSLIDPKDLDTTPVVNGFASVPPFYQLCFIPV
Method: (§2) The compounds originally dissolved in DMSO were added to PBS to give a resulting concentration of […]. CYP baculosomes containing cDNA for a single human P450 isozyme, the fluorogenic substrate and the NADPH were added to the test solution. The reaction was incubated at 37°C for at least 1 h. Fluorogenic substrates metabolized by CYP enzymes result in highly fluorescent products in aqueous solution. The inhibition of CYP prevents this metabolism, which corresponds to a decrease in the fluorescence signal. The fluorescence was measured on a plate reader.

CYP 2C9 = molecular target: T2, CYP 2C9 (Homo sapiens, UniProt P11712); assay: CYP450 inhibition assay, CYP 2C9; type: in vitro ADME; parameters: dose or concentration left out as unconfirmed; conditions: CYP baculosomes with recombinant human CYP2C9, probe fluorogenic substrate (not named); human recombinant enzymes; read-out: Mean % inhibtion CYP 2C9
T2 construct: purchased; host or cells: baculosomes (insect-cell microsomes; own knowledge)
T2 sequence (P11712 whole entry): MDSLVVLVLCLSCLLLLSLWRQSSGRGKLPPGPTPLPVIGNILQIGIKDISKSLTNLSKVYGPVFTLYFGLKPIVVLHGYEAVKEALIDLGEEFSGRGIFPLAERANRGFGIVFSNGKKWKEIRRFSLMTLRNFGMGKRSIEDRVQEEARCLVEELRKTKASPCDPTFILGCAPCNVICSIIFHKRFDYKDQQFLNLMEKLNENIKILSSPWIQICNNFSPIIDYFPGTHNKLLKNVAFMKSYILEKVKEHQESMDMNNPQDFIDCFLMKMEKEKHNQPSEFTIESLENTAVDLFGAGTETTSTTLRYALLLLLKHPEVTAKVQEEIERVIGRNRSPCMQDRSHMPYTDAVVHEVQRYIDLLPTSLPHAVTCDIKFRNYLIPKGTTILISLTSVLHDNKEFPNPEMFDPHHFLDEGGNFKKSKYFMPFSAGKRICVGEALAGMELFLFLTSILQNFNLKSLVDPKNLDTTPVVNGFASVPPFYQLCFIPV
Method: as §2

[5] = Human hepatocyte stability assay; type: in vitro ADME; parameters: half-life / hepatocyte CLint: dose or concentration left out as unconfirmed; conditions: for hepatic extraction ratio: hepatocyte stability assay; for half-life / hepatocyte CLint: human, hepatocytes; for half-life: read-out: t1/2 hepatocytes; for hepatocyte CLint: in vivo hepatic intrinsic clearance prediction values
Method: as §1, with “The compounds originally dissolved in DMSO were added to PBS to give a resulting concentration of 1 mM. Hepatocytes” for “Microsomes and NADPH”, “120” for “60”, “Acetonitrile” for “Acetonitrile (300 μL)”

CYP 3A4 = molecular target: T3, CYP 3A4 (Homo sapiens, UniProt P08684); assay: CYP450 inhibition assay, CYP 3A4; type: in vitro ADME; parameters: dose or concentration left out as unconfirmed; conditions: CYP baculosomes with recombinant human CYP3A4, probe fluorogenic substrate (not named); human recombinant enzymes; read-out: Mean % inhibtion CYP 3A4
T3 construct: purchased; host or cells: baculosomes (insect-cell microsomes; own knowledge)
T3 sequence (P08684 whole entry): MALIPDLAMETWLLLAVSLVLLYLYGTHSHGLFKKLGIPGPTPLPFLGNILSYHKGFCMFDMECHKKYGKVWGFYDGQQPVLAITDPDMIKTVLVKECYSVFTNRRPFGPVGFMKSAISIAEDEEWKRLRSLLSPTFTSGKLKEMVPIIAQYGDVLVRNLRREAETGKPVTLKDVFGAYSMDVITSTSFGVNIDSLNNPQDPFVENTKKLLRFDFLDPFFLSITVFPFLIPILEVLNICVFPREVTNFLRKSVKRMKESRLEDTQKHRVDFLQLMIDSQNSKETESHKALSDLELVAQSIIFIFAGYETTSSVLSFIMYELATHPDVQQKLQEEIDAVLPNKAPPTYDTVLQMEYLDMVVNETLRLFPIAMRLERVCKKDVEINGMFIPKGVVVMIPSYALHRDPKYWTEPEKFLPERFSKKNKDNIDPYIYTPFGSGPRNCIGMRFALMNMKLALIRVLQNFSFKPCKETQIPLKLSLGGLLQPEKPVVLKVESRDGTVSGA
Method: as §2

CYP 1A2 = molecular target: T4, CYP 1A2 (Homo sapiens, UniProt P05177); assay: CYP450 inhibition assay, CYP 1A2; type: in vitro ADME; parameters: dose or concentration left out as unconfirmed; conditions: CYP baculosomes with recombinant human CYP1A2, probe fluorogenic substrate (not named); human recombinant enzymes; read-out: Mean % inhibtion CYP 1A2
T4 construct: purchased; host or cells: baculosomes (insect-cell microsomes; own knowledge)
T4 sequence (P05177 1-516): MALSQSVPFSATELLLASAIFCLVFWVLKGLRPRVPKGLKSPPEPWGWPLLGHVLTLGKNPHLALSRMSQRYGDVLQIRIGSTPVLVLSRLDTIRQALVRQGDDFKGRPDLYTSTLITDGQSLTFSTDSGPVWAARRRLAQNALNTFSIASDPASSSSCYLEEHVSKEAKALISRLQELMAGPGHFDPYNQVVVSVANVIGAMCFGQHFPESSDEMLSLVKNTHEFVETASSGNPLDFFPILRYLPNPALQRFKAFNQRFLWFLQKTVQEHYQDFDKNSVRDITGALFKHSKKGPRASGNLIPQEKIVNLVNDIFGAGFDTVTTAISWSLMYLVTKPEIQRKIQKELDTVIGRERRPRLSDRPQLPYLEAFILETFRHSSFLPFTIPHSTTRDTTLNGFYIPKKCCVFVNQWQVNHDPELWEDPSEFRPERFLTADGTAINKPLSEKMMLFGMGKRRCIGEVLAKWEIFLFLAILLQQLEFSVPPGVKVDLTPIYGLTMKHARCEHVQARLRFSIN
Method: as §2

[6] = Aqueous kinetic solubility; type: physicochemical; conditions: aqueous with cosolvent or surfactant or cyclodextrin, kinetic from dmso stock, 5% DMSO in PBS, 21°C
Method: The compounds were equilibrated in 5% DMSO in PBS at 21°C for 24 h. The samples were then centrifuged at 15000 g for 10 min. A 100 μL sample of the supernatant was carefully collected and the soluble amount of compound quantified using LC-MS/MS. A standard curve for each compound was prepared in 100% acetonitrile. Solubility results are reported as low (<0.1 mg/mL), medium (0.1–0.5 mg/mL) and high (>0.5 mg/mL).

CYP 2D6 = molecular target: T5, CYP 2D6 (Homo sapiens, UniProt P10635); assay: CYP450 inhibition assay, CYP 2D6; type: in vitro ADME; parameters: dose or concentration left out as unconfirmed; conditions: CYP baculosomes with recombinant human CYP2D6, probe fluorogenic substrate (not named); human recombinant enzymes; read-out: Mean % inhibtion CYP 2D6
T5 construct: purchased; host or cells: baculosomes (insect-cell microsomes; own knowledge)
T5 sequence (P10635 whole entry): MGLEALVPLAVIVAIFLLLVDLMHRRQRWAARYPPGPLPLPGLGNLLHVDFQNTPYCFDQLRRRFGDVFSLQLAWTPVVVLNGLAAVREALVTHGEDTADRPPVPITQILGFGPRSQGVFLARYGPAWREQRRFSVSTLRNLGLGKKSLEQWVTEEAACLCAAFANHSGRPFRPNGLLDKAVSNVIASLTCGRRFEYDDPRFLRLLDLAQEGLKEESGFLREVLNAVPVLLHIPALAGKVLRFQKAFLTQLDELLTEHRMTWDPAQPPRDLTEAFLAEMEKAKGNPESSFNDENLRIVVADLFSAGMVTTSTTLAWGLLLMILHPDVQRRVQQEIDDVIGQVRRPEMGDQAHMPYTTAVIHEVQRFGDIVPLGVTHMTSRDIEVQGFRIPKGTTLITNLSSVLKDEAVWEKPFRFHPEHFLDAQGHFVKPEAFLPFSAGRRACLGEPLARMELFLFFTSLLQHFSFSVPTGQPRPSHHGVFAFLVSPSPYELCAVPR
Method: as §2

M. bovis BCG Pasteur = assay: microbe, parasite or virus in culture; type: cell-based; conditions: Mycobacterium tuberculosis variant bovis BCG, BCG
[7] = system: murine macrophage cell line RAW264.7; assay: Eukaryotic cell toxicity assay, RAW264.7; type: cell-based; conditions: Mus musculus, read-out: GIC50 RAW264.7
M. tuberculosis H37Rv = conditions: virulent M. tuberculosis H37Rv strain; cited from earlier work
[8] = 336 h, read-out: MIC M. bovis BCG, SPOTi, 2 weeks at 37°C
[9] = read-out: MIC M. bovis BCG, SPOTi, value in square brackets
[10] = RAW264.7, value in square brackets
[11] = murine macrophage cell line RAW264.7

Sequence of P-glycoprotein (P08183 whole entry): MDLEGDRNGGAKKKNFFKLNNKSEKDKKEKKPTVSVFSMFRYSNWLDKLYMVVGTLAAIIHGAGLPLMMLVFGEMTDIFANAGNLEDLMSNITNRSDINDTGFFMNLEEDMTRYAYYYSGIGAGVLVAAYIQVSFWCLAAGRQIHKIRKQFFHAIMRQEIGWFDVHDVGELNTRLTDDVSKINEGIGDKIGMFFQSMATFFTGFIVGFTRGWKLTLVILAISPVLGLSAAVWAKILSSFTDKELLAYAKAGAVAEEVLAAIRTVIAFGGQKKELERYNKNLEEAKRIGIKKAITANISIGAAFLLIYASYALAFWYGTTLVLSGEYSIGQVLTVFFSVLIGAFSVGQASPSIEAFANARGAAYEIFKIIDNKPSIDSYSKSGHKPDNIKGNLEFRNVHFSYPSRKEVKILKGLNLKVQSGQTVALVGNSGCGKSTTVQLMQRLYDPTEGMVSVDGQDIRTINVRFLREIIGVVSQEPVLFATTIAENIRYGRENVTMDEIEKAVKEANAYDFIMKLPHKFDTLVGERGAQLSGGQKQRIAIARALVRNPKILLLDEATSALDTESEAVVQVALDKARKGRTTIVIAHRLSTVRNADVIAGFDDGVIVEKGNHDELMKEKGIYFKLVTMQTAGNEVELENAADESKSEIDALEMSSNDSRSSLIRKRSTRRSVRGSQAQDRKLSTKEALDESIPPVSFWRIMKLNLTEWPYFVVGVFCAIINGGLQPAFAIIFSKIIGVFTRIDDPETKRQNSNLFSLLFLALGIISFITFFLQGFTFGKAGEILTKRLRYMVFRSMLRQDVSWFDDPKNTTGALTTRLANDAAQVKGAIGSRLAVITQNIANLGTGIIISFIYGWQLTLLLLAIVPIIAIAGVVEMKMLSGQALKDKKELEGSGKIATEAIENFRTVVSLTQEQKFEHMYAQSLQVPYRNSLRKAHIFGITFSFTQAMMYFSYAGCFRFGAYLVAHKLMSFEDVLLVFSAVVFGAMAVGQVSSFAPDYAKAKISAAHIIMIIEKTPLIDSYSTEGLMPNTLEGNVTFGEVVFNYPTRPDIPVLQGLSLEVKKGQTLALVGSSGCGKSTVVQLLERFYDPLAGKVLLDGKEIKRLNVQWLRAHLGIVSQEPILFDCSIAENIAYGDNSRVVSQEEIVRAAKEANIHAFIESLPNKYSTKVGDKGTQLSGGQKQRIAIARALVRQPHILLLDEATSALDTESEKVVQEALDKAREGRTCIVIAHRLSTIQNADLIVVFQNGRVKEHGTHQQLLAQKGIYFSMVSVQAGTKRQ

| SMILES | efflux ratio (P-glycoprotein) | Mean % microsome turnover ([1]; human liver microsomes, 0 min) [%] | Mean compound remaining ([1]; human liver microsomes, 0 min) | Microsomal stability ([1]; human liver microsomes, 0 min) | Mean % microsome turnover ([1]; human liver microsomes, 15 min) [%] | Mean compound remaining ([1]; human liver microsomes, 15 min) | Microsomal stability ([1]; human liver microsomes, 15 min) | Mean % microsome turnover ([1]; human liver microsomes, 30 min) [%] | Mean compound remaining ([1]; human liver microsomes, 30 min) | Microsomal stability ([1]; human liver microsomes, 30 min) | Mean % microsome turnover ([1]; human liver microsomes, 60 min) [%] | Mean compound remaining ([1]; human liver microsomes, 60 min) | Microsomal stability ([1]; human liver microsomes, 60 min) | half-life [1] [min] | Papp A→B at 30 min, 10 μM [2] [×10⁻⁶ cm/s] | Papp A→B at 30 min, 10 μM (MDR-1) [×10⁻⁶ cm/s] | Papp B→A at 30 min, 10 μM (MDR-1) [×10⁻⁶ cm/s] | Papp A-B [3] | IC50 [4] [µM] | inhibition (CYP 2C19) [%] | further results |
| --- | --- | --- | --- | --- | --- | --- | --- | --- | --- | --- | --- | --- | --- | --- | --- | --- | --- | --- | --- | --- | --- |
| Oc1ccc(Br)c2c1C(c1cccc3c1OCO3)NCC2 (centres unmarked) [Compound 35] | 11.9 | -5.55e-15 | 100.00 | 4.60 | 3.85 | 96.15 | 4.57 | 14.54 | 85.46 | 4.45 | 30.44 | 69.56 | 4.24 | 110 | 2 to 20 | 3.2 | 38 | 3.2 cm/sec, x10-6 | < 111 | 98.2 | inhibition (CYP 2C9): 44.9%; hepatic extraction ratio [5]: > 0.6; half-life ([5]; human hepatocytes): 78.6 min; hepatocyte CLint [5]: 12.6 µL/min/1e6 cells; inhibition (CYP 3A4): 80%; inhibition (CYP 1A2): 36.7%; solubility kinetic at 24 h [6]: 300 µg/mL (≈ 862 µM); inhibition (CYP 2D6): 80.7%; MIC (M. bovis BCG Pasteur; [8]): 60 µg/mL; MIC (M. bovis BCG Pasteur; [9]): 172 µM; IC50 [7, 10]: 348 µM; IC50 [7, 11]: 121 µg/mL |
| Oc1ccc(Br)c2c1C(Cc1ccc3c(c1)OCO3)NCC2 (centres unmarked) [Compound 28] | 11.3 | -5.33e-15 | 100.00 | 4.60 | 64.61 | 35.39 | 3.57 | 88.00 | 12.00 | 2.48 | 92.24 | 7.76 | 2.03 | 9.81 | < 2 | 1.7 | 18.8 | 1.7 cm/sec, x10-6 | < 111 | 97.5 | t1/2 microsomes ([1]; human liver microsomes): 9.8 min; inhibition (CYP 2C9): 81.8%; hepatic extraction ratio [5]: > 0.6; t1/2 hepatocytes ([5]; human hepatocytes): 23.2 min; half-life ([5]; human hepatocytes): 23.2 min; hepatocyte CLint [5]: 17.4 µL/min/1e6 cells; inhibition (CYP 3A4): 93.2%; inhibition (CYP 1A2): 81.4%; solubility kinetic at 24 h [6]: 800 µg/mL (≈ 2210 µM); solubility at 24 h ([6]; read-out: aqueous solubility (class)): > 500 µg/mL; inhibition (CYP 2D6): 92.9%; MIC (M. bovis BCG Pasteur; [8]): 20 µg/mL; MIC (M. bovis BCG Pasteur; [9]): 55 µM; IC50 [7, 10]: 130 µM; IC50 [7, 11]: 47 µg/mL |
| COc1cc2c(cc1OC)-c1c3c(cc4c1[C@H](C2)NCC4)OCO3 [(-)-Nordicentrine] | – | – | – | – | – | – | – | – | – | – | – | – | – | – | – | – | – | – | – | – | MIC M. tuberculosis H37Rv (M. tuberculosis H37Rv): 12.5 µg/mL (≈ 38.4 µM) |
